Reference: patent US20200345746A1, “Oxazine Derivative for Use in the Prevention of Alzheimer's Disease in at Risk Patents” (Novartis AG, priority 2016, published 2020)

Columns and labels:
[1] = off-target binding or activity
in vivo = conditions: C57BL/6, mouse; for AUC(0-t): po, AUCblood (AUC0-24 h)
From the text: Blood samples were used to analyze whole-blood compound levels and were obtained either from tail-vein during the in-life part into EDTA tubes (CB300, Sarstedt, Germany) or from trunk blood at the day of necropsy into EDTA Eppendorf tubes (Milian S A, CatNoTOM-14, Fisher Scientific, Wohlen, Switzerland), or into serum tubes (CB300Z, Sarstedt, Nümbrecht, Germany).
Brain was removed immediately after decapitation, rinsed with saline and sectioned sagitally down the midline. The left half of the cerebellum was used to analyze compound level and was placed into a glass tube (Chromacol, 125×5-SV T051, Welwyn Garden City, United Kingdom), weighed and frozen in dry-ice, the left half of the forebrain (without olfactory bulb) was used for Aβ analysis, and was frozen on a metal plate on dry ice and placed into protein Lo-bind tube (003 0108.116, Eppendorf, Hamburg, Germany).
Ventral and dorsal skin were taken to analyze compound level, weighed and frozen on dry-ice.
Brain samples were mixed with 2 volumes of KH2PO4 buffer and homogenized using the Covaris® device. Skin samples were mixed with approx. 6-fold volumes of methanol/water and homogenized using a Precellys tube. Either 30 μL of blood, brain or skin homogenate were spiked with a structurally related internal standard and subsequently mixed with an at least 6-fold excess volume acetonitrile for protein precipitation. The supernatant was injected directly into the LC/MS/MS system for analysis.
For tissue exposure, only data at 4 and 24 h were available.

Aβ40 [2] = assay: 3-month dose-ranging study: Aβ40 in CSF; assay type: in vivo, human; conditions: for Aβ40 % change from baseline, Mean (SD) / Aβ40 % change from baseline, Median: CSF, 3 months
From the text: (§1) This study is listed in ClinicalTrials.gov under the NCT02576639 Identifier code.
(§2) The primary purpose of this study was to expand on previous safety and tolerability data obtained over 2-week and 4-week duration in the first in human study and thereby allow initiation of future long-term efficacy trials in subjects at risk of AD. In addition, data relevant for Pharmacokinetic/Pharmacodynamic modeling was obtained in order to support dose selection decisions for future efficacy studies.
In the completed first-in-human and 3-month dose-ranging safety and tolerability clinical studies described in Examples 5 and 6, Aβ concentrations in CSF were obtained by means of lumbar punctures before the first dose (baseline) and respectively after 2 weeks and 3 months of multiple dosing. ApoE4 genotype also was obtained in the subjects who consented. The percent change from baseline in Aβ40 and Aβ42 concentrations was calculated in subjects who took the study treatment and had no major protocol deviation with potential impact on the evaluation of the pharmacodynamic effect. Tables 18 to 21 below provide summary statistics of the percent change from baseline by treatment group and ApoE genotype (E4 heterozygotes versus E4 non-carriers). Only one subject with CSF data was E4 homozygote (from the 3-month dose-ranging safety and tolerability study).

[3] = 3-month dose-ranging study: safety and tolerability; assay type: in vivo, human; conditions: healthy elderly subjects, once-daily 2, 10, 35 and 85 mg over three months
From the text: as §1, §2

Aβ42 = assay: Formic acid soluble Aβ42 in APP23 mouse forebrain; assay type: in vivo
Protocol: (§3) Frozen mouse forebrains were weighed and homogenized in 9 volumes (w/v) of ice-cold TBS-Complete (20 mM Tris-HCl pH 7.4, 137 mM NaCl, 1× Complete [Protease Inhibitor Cocktail Tablets: 1 836 145, Roche Diagnostics GmbH, Penzberg, Germany]) by sonication (90% duty cycle, output control 5, 40-55 pulses, [Sonifier 450, Branson]). After homogenization several 50 μl aliquots were prepared for analysis and were stored at −80° C.
Fifty microliter of forebrain homogenate was mixed with 116.6 μl 100% formic acid, resulting in a final formic acid concentration of 70%. Samples were stored on ice and vortexed every 5 minutes. For neutralization, 50 μl of the mixture were pipetted into a new tube, and 950 μl of 1 M Tris base, containing 1× Complete Protease inhibitor, was added. Tubes were stored at room temperature overnight and then centrifuged for 15 minutes at 14000 rpm in an Eppendorf Microzentrifuge at 4° C. From the top layer, 100 μl are removed and mixed with 100 μl of 3% Blocker A solution (part of the MesoScale assay kit). This sample was either directly applied to the assay plate (dilution 1:1332) or further diluted in 1% Blocker A solution.

Aβ40 [4] = assay: Acute PK/PD in APOE4-TR mice: Aβ40 in brain; assay type: in vivo, mouse; conditions: for Average Aβ40 brain ± SD: n = 6; for Aβ40 reduction vs vehicle, range over the doses: APOE4-TR mice, 3, 10 and 30 μmol/kg
Protocol: Compound 1 was formulated as a suspension. Vehicle or compound was given by oral administration in a volume of 10 ml/kg once. Vehicle: 0.1% Tween80 in 0.5% Methylcellulose in water.
as §3
Endogenous Aβ40 in mice was determined with the Meso Scale Discovery (MSD) 96-well MULTI-ARRAY human/rodent (4G8) Aβ40 Ultrasensitive Assay (#K110FTE-3, Meso Scale Discovery, Gaithersburg, USA). The assay was performed according to the manufacturer's instructions except for the calibration curve and the sample preparations. TritonX-100 (TX-100) soluble Aβ40 was extracted from forebrain with 1% TX-100 using a 50 μl aliquot of each 1:10 forebrain homogenate, mixed with 50 μl 2% TX-100 in TBS complete (20 mM Tris-HCl pH 7.4, 137 mM NaCl, 1× Complete [Protease Inhibitor Cocktail Tablets: 1 836 145, Roche Diagnostics GmbH, Penzberg Germany]) to reach a final concentration of 1% TX-100 and a 1:20 forebrain dilution. The samples were incubated for 15 min on ice and vortexed every 5 min. The samples were ultra-centrifuged (100000×g, 4° C., 15 min) and 50 μl of the clear supernatants were transferred to fresh tubes. For the Aβ40 assay the supernatants were further diluted 1:5 in 3% Blocker A solution (from kit) to a final forebrain dilution of 1:100 and applied to the plate.
The calibration curve was prepared in a corresponding dilution of 1% Blocker A solution spiked with synthetic Aβ1-40 peptide (1.56-100 pg/ml) except for non-transgenic mouse brain samples: In this case, the calibration curve was prepared in a correspondingly diluted APP knockout mouse forebrain spiked with synthetic Aβ1-40 peptide (1.56-100 pg/ml). For all samples and standards 25 μl were applied per well. For each determination duplicate wells were done. The mean values from the duplicate wells were used for calculations.

[5] = APOE4-TR mice, 30 μmol/kg acute

C[C@@]1(c2nc(NC(=O)c3ncc(C(F)(F)F)cc3Cl)ccc2F)CO[C@@](C)(C(F)(F)F)C(N)=N1 [Compound 1, N-(6-((3R,6R)-5-amino-3,6-dimethyl-6-(trifluoromethyl)-3,6-dihydro-2H-1,4-oxazin-3-yl)-5-fluoropyridin-2-yl)-3-chloro-5-(trifluoromethyl)picolinamide]
off-target binding or activity [1]: no relevant off-target binding or activity | Kp (in vivo): 3.2 | AUC(0-t) (in vivo; 8 umol/kg): 3.43 µM·h | AUC(0-t) (in vivo; 50 umol/kg): 28.9 µM·h | Aβ40 % change from baseline, Mean (SD) (Aβ40 [2]; 2 mg, E4 heterozygotes): −21 (11) % | Aβ40 % change from baseline, Median (Aβ40 [2]; 2 mg, E4 heterozygotes): −18% | Aβ40 % change from baseline, Mean (SD) (Aβ40 [2]; 2 mg, E4 non-carriers): −24 (9) % | Aβ40 % change from baseline, Median (Aβ40 [2]; 2 mg, E4 non-carriers): −22% | Aβ40 % change from baseline, Mean (SD) (Aβ40 [2]; 10 mg, E4 heterozygotes): −67 (7) % | Aβ40 % change from baseline, Median (Aβ40 [2]; 10 mg, E4 heterozygotes): −64% | Aβ40 % change from baseline, Mean (SD) (Aβ40 [2]; 10 mg, E4 non-carriers): −64 (6) % | Aβ40 % change from baseline, Median (Aβ40 [2]; 10 mg, E4 non-carriers): −65% | Aβ40 % change from baseline, Mean (SD) (Aβ40 [2]; 35 mg, E4 heterozygotes): −84 (3) % | Aβ40 % change from baseline, Median (Aβ40 [2]; 35 mg, E4 heterozygotes): −85% | Aβ40 % change from baseline, Mean (SD) (Aβ40 [2]; 35 mg, E4 non-carriers): −82 (5) % | Aβ40 % change from baseline, Median (Aβ40 [2]; 35 mg, E4 non-carriers): −83% | Aβ40 % change from baseline, Mean (SD) (Aβ40 [2]; 85 mg, E4 heterozygotes): −91 (0) % | Aβ40 % change from baseline, Median (Aβ40 [2]; 85 mg, E4 heterozygotes): −91% | Aβ40 % change from baseline, Mean (SD) (Aβ40 [2]; 85 mg, E4 non-carriers): −91 (2) % | Aβ40 % change from baseline, Median (Aβ40 [2]; 85 mg, E4 non-carriers): −90% | difference in CSF Aβ40 and Aβ42 response between ApoE4 carriers and non-carriers (Aβ40 [2]; first-in-human (2 weeks) and 3-month studies): no difference in CSF Aβ40 and Aβ42 response to treatment | PD steady-state (Aβ lowering) reached after (Aβ40 [2]; healthy elderly subjects, once-daily dosing): 2-3 weeks | Aβ40 in CSF percent change from baseline, Difference (90% CI) Cmpd 1-Placebo (Aβ40 [2]; month 3, 2 mg QD): −19.87 (−23.09, −16.65) % | Aβ40 in CSF percent change from baseline, LSmean (SE) (Aβ40 [2]; month 3, 2 mg QD): −22.66 (1.355) % | Aβ40 in CSF percent change from baseline, Difference (90% CI) Cmpd 1-Placebo (Aβ40 [2]; month 3, 10 mg QD): −60.18 (−63.43, −56.92) % | Aβ40 in CSF percent change from baseline, LSmean (SE) (Aβ40 [2]; month 3, 10 mg QD): −62.96 (1.388) % | Aβ40 in CSF percent change from baseline, Difference (90% CI) Cmpd 1-Placebo (Aβ40 [2]; month 3, 35 mg QD): −80.41 (−83.59, −77.22) % | Aβ40 in CSF percent change from baseline, LSmean (SE) (Aβ40 [2]; month 3, 35 mg QD): −83.19 (1.325) % | Aβ40 in CSF percent change from baseline, Difference (90% CI) Cmpd 1-Placebo (Aβ40 [2]; month 3, 85 mg QD): −87.62 (−90.93, −84.30) % | Aβ40 in CSF percent change from baseline, LSmean (SE) (Aβ40 [2]; month 3, 85 mg QD): −90.40 (1.429) % | safety and tolerability [3]: safe and tolerated | Formic acid soluble Aβ42 change vs vehicle (Aβ42; APP23, 0.03 g/kg vs vehicle): −16.3% | Formic acid soluble Aβ42 change vs vehicle (Aβ42; APP23, 0.3 g/kg vs vehicle): −86.2% | Mini AUEC (brain Aβ40) (Aβ40 [4]; APOE4-TR mice, 3 μmol/kg acute): 32% | Average Aβ40 brain ± SD (Aβ40 [4]; APOE4-TR mice, 3 μmol/kg acute p.o., 4 h): 0.114 ± 0.024 pmol/g | Average Aβ40 brain ± SD (Aβ40 [4]; APOE4-TR mice, 3 μmol/kg acute p.o., 24 h): 0.160 ± 0.033 pmol/g | % reduction vs vehicle (brain Aβ40) (Aβ40 [4]; APOE4-TR mice, 3 μmol/kg acute, 4 h): 43% | % reduction vs vehicle (brain Aβ40) (Aβ40 [4]; APOE4-TR mice, 3 μmol/kg acute, 24 h): 20% | Mini AUEC (brain Aβ40) (Aβ40 [4]; APOE4-TR mice, 10 μmol/kg acute): 47% | Average Aβ40 brain ± SD (Aβ40 [4]; APOE4-TR mice, 10 μmol/kg acute p.o., 4 h): 0.074 ± 0.014 pmol/g | Average Aβ40 brain ± SD (Aβ40 [4]; APOE4-TR mice, 10 μmol/kg acute p.o., 24 h): 0.139 ± 0.041 pmol/g | % reduction vs vehicle (brain Aβ40) (Aβ40 [4]; APOE4-TR mice, 10 μmol/kg acute, 4 h): 63% | % reduction vs vehicle (brain Aβ40) (Aβ40 [4]; APOE4-TR mice, 10 μmol/kg acute, 24 h): 31% | Mini AUEC (brain Aβ40) (Aβ40 [4]; [5]): 72% | maximal effect on Aβ reduction in the brain (Aβ40 [4]; [5]): > 70% | Average Aβ40 brain ± SD (Aβ40 [4]; APOE4-TR mice, 30 μmol/kg acute p.o., 4 h): 0.046 ± 0.006 pmol/g | Average Aβ40 brain ± SD (Aβ40 [4]; APOE4-TR mice, 30 μmol/kg acute p.o., 24 h): 0.068 ± 0.021 pmol/g | % reduction vs vehicle (brain Aβ40) (Aβ40 [4]; APOE4-TR mice, 30 μmol/kg acute, 4 h): 77% | % reduction vs vehicle (brain Aβ40) (Aβ40 [4]; APOE4-TR mice, 30 μmol/kg acute, 24 h): 66% | Aβ40 reduction vs vehicle, range over the doses (Aβ40 [4]; 4h): 43-77% | Aβ40 reduction vs vehicle, range over the doses (Aβ40 [4]; 24h): 20-66%
